According to US9328374B2, “Selective culture medium and method for detecting carbapenem-resistant bacteria in a test sample” (Institut National de la Sante et de la Recherche Medicale …, priority 2011, dated 2016):
Read-outs that look alike come from different tables or passages of the source.

System: K. pneumoniae
Test: MIC of imipenem, ertapenem and meropenem
Assay type: cell-based, Klebsiella pneumoniae
Details: Klebsiella pneumoniae, read-out: MIC

C[C@@H](O)[C@H]1C(=O)N2C(C(=O)O)=C(S[C@@H]3CN[C@H](C(=O)Nc4cccc(C(=O)O)c4)C3)[C@H](C)[C@H]12 [ETP, ertapenem]
MIC (K. pneumoniae 1 OMA (NDM-1 + CTX-M-15 + OXA-1 + OXA-9)): > 32 µg/mL
MIC (K. pneumoniae 2 OLA (NDM-1 + OXA-1)): 6 µg/mL
MIC (K. pneumoniae 7 AFR (NDM-1 + OXA-1 + CTX-M-15 + CMY-6 + TEM-1)): > 32 µg/mL
MIC (K. pneumoniae 7AFR, NDM-1 + TEM-1 + CTX-M-15 + CMY-6 + OXA-1): > 32 µg/mL
MIC (K. pneumoniae 0227, SHV-1, non-carbapenemase producer): 0.008 µg/mL
MIC (K. pneumoniae 588, KPC-2 + TEM-1 + SHV-11 + OXA-9): 32 µg/mL
MIC (K. pneumoniae 1022, SHV-2a + SHV-28, non-carbapenemase producer): 0.016 µg/mL
MIC (K. pneumoniae 1025 (CTX-M-14 + TEM-1 + SHV-11)): 0.016 µg/mL
MIC (K. pneumoniae 1025, CTX-M-14 + TEM-1 + SHV-11, non-carbapenemase producer): 0.016 µg/mL
MIC (K. pneumoniae 2303, KPC-2 + SHV-11): > 32 µg/mL
MIC (K. pneumoniae 6642 GEN (NDM-1 + CTX-M-15 + OXA-1 + OXA-10)): 16 µg/mL
MIC (K. pneumoniae 6642 GEN, NDM-1 + CTX-M-15 + OXA-1 + OXA-10): 16 µg/mL
MIC (K. pneumoniae 6759 GEN (NDM-1 + CTX-M-15 + OXA-1 + OXA-9 + OXA-10 + CMY16)): > 32 µg/mL
MIC (K. pneumoniae 6759 GEN, NDM-1 + CTX-M-15 + CMY-16 + OXA-1 + OXA-9 + OXA-10): > 32 µg/mL
MIC (K. pneumoniae 7725 (SHV-1)): 0.006 µg/mL
MIC (K. pneumoniae 7725, SHV-1, non-carbapenemase producer): 0.006 µg/mL
MIC (K. pneumoniae 10112, CTX-M-15 + TEM-1 + SHV-11, non-carbapenemase producer): 0.016 µg/mL
MIC (K. pneumoniae 0404020, VIM-1+ SHV-5): > 32 µg/mL
MIC (K. pneumoniae 0404024, VIM-1): > 32 µg/mL
MIC (K. pneumoniae 0511135, VIM-1+ SHV-12): > 32 µg/mL
MIC (K. pneumoniae 648236 (SHV-2a)): 2 µg/mL
MIC (K. pneumoniae 648236, SHV-2a, non-carbapenemase producer, porin deficiency): 2 µg/mL
MIC (K. pneumoniae 0709121, IMP-1): 3 µg/mL
MIC (K. pneumoniae 0709124, IMP-1 + TEM-15): 3 µg/mL
MIC (K. pneumoniae 0709125, IMP-1 + TEM-1 + SHV-12): 4 µg/mL
MIC (K. pneumoniae 0709127, IMP-1 + TEM-1): 4 µg/mL
MIC (K. pneumoniae A28006, KPC-2 + TEM-1 + CTX-M-2 + SHV-11): 24 µg/mL
MIC (K. pneumoniae A33504, KPC-2 + TEM-1 + SHV-11 + CTX-M-2 + OXA-9): > 32 µg/mL
MIC (K. pneumoniae AEL, OXA-48 + CTX-M-15 + SHV-28 + OXA-1): 6 µg/mL
MIC (K. pneumoniae ALE (CTX-M-15 + SHV-1)): > 32 µg/mL
MIC (K. pneumoniae ALE, CTX-M-15 + SHV-1, non-carbapenemase producer, porin deficiency): > 32 µg/mL
MIC (K. pneumoniae AMS (OXA-48 + TEM-1 + CTX-M-15 + OXA-1)): 2 µg/mL
MIC (K. pneumoniae AMS, OXA-48 + TEM-1 + CTX-M-15 + OXA-1): 2 µg/mL
MIC (K. pneumoniae BAJ (OXA-48 + TEM-1 + CTX-M-15 + SHV-28)): 1.5 µg/mL
MIC (K. pneumoniae BAJ, OXA-48 + TEM-1 + CTX-M-15 + SHV-28): 1.5 µg/mL
MIC (K. pneumoniae BED (CTX-M-15 + TEM-1 + SHV-1; Table 8: SHV-11)): > 32 µg/mL
MIC (K. pneumoniae BED, CTX-M-15 + TEM-1 + SHV-11, non-carbapenemase producer, porin deficiency): > 32 µg/mL
MIC (K. pneumoniae BEL (OXA-48)): 4 µg/mL
MIC (K. pneumoniae BEL, OXA-48): 4 µg/mL
MIC (K. pneumoniae BEN (OXA-48 + TEM-1 + CTX-M-15 + SHV-28)): 1 µg/mL
MIC (K. pneumoniae BEN, OXA-48 + TEM-1 + CTX-M-15 + SHV-28): 1 µg/mL
MIC (K. pneumoniae BER (TEM-1 + SHV-28)): 4 µg/mL
MIC (K. pneumoniae BER, SHV-28 + TEM-1, non-carbapenemase producer, porin deficiency): 4 µg/mL
MIC (K. pneumoniae BEY (OXA-48 + CTX-M-15 + TEM-1)): 0.38 µg/mL
MIC (K. pneumoniae BEY, OXA-48 + TEM-1 + CTX-M-15): 0.38 µg/mL
MIC (K. pneumoniae BIC (OXA-48)): 2 µg/mL
MIC (K. pneumoniae BIC, OXA-48): 2 µg/mL
MIC (K. pneumoniae BOU, OXA-48): 0.5 µg/mL
MIC (K. pneumoniae CHA (OXA-48 + TEM-1)): 1 µg/mL
MIC (K. pneumoniae CHA, OXA-48 + TEM-1): 1 µg/mL
MIC (K. pneumoniae COL (KPC-2 + TEM-1 + SHV-1 + CTX-M-15)): 4 µg/mL
MIC (K. pneumoniae COO (CTX-M-15 + SHV28)): > 32 µg/mL
MIC (K. pneumoniae COO, CTX-M-15 + SHV-28, non-carbapenemase producer, porin deficiency): > 32 µg/mL
MIC (K. pneumoniae DAL (OXA-48 + CTX-M-15 + TEM-1)): 2 µg/mL
MIC (K. pneumoniae DAL, OXA-48 + TEM-1 + CTX-M-15): 2 µg/mL
MIC (K. pneumoniae DIA, OXA-48 + TEM-1b + CTX-M-15 + SHV-11 + OXA-1): > 32 µg/mL
MIC (K. pneumoniae DUW, OXA-48 + TEM-1 + CTX-M-15 + SHV-28): 32 µg/mL
MIC (K. pneumoniae EGY (OXA-48 + CTX-M-15)): 3 µg/mL
MIC (K. pneumoniae EGY, OXA-48 + CTX-M-15): 3 µg/mL
MIC (K. pneumoniae ELK (OXA-48 + TEM-1 + CTX-M-15 + SHV-11)): 3 µg/mL
MIC (K. pneumoniae ELK, OXA-48 + TEM-1 + CTX-M-15 + SHV-11): 3 µg/mL
MIC (K. pneumoniae ENN, VIM-1+ SHV-5): 1.5 µg/mL
MIC (K. pneumoniae FOS (CTX-M-15 + TEM-1 + SHV-11)): > 32 µg/mL
MIC (K. pneumoniae FOS, CTX-M-15 + TEM-1 + SHV-11, non-carbapenemase producer, porin deficiency): > 32 µg/mL
MIC (K. pneumoniae GES, KPC-2 + TEM-1 + SHV-11): 12 µg/mL
MIC (K. pneumoniae HOL (OXA-181 + CTX-M-15)): 4 µg/mL
MIC (K. pneumoniae HOL, OXA-181 + CTX-M-15): 4 µg/mL
MIC (K. pneumoniae HPA, OXA-48 + TEM-1 + CTX-M-15 + OXA-1): > 32 µg/mL
MIC (K. pneumoniae IND (NDM-1 + OXA-1 + CTX-M-15)): 8 µg/mL
MIC (K. pneumoniae KAM, KPC-3 + TEM-1 + SHV-11): 12 µg/mL
MIC (K. pneumoniae KDH (DHA-2)): 0.5 µg/mL
MIC (K. pneumoniae KI2, NDM-1 + CTX-M-15 + OXA-1): 8 µg/mL
MIC (K. pneumoniae KIE, NDM-1 + SHV-38 + CMY-16 + OXA-10): 2 µg/mL
MIC (K. pneumoniae KPN (CTX-M-15)): 0.12 µg/mL
MIC (K. pneumoniae KPN, CTX-M-15, non-carbapenemase producer): 0.012 µg/mL
MIC (K. pneumoniae LEG (CTX-M-15 + TEM-1 + SHV-12)): > 32 µg/mL
MIC (K. pneumoniae LEG, CTX-M-15 + TEM-1 + SHV-12, non-carbapenemase producer, porin deficiency): > 32 µg/mL
